Experiments:
[1] = test system: Culex quinquefasciatus mosquito; assay: USDA Petri Dish Method, 3 min exposure to dipped fiberglass window screen; type: in vivo; details: Table 29, aqueous deltamethrin/adjuvant
Experimental: MATERIALS AND METHODS: Aqueous solutions of 1% deltamethrin with and without adjuvant were prepared using product sold under the tradename Suspend® SC. […] Pre-cut fiberglass screen (5″×5″, or 161.3 cm^2) were dipped in each treatment solution and excessive solution was allowed to drain completely. Weight of the solution coated on the screen was then determined. The treated screen was then allowed to air-dry overnight. USDA Petri Dish Method was used as initial screening protocol. Twenty, 4-6 day old female Culex quinquefasciatus were exposed to treated window screen for 3 minutes and then moved onto a clean untreated white paper index card. Treatments were replicated a minimum of three times. Mosquito knockdown was evaluated at 3 minute intervals for the first 15 minutes and then at 5 minute intervals for the remainder of an hour. A small cotton ball soaked in sucrose solution was added on the screen top of the petri-dish as a drinking source. Mortality was evaluated at 24 hours after exposure.

[2] = test system: bait averse/resistant German cockroach (T-164 strain); assay: Knockdown/mortality of male cockroaches under continuous exposure on treated glazed tile; type: in vivo, Blattella germanica; set-up: Average % Knockdown & Mortality after 5 hr / Average % Knockdown & Mortality after 30 min: concentration or dose not given beside the values; details: glazed tile

For `CC1(C)[C@H](C(=O)O[C@H](C#N)c2cccc(Oc3ccccc3)c2)[C@@H]1C=C(Br)Br` [deltamethrin (1%)], the “Average % Knockdown & Mortality after 15 min” value ([1]; 15 min) was 0%, the “Average % Knockdown & Mortality after 30 min” value ([1]; 30 min) was 2% and the “Average % Knockdown & Mortality after 45 min” value ([1]; 45 min) was 3%. The “Average % Knockdown & Mortality after 60 min” value ([1]; 60 min) was 8%, the “Average % Knockdown & Mortality after 4 hr” value ([1]; 4 hr) was 52% and the “Average % Knockdown & Mortality after 24 hr” value ([1]; 24 hr) was 86%.
`O=[N+]([O-])NC1=NCCN1Cc1ccc(Cl)nc1` [imidacloprid] was tested, and the “Average % Knockdown & Mortality after 45 min” value ([2]; 45 min, Table 24, imidacloprid/dibutyl sebacate (DBS) in acetone, T-164 strain) was 0%, the “Average % Knockdown & Mortality after 3 hr” value ([2]; 3 hr, Table 23, imidacloprid/tritylchloride in acetone, T-164 strain) was 7% and the “Average % Knockdown & Mortality after 15 min” value ([2]; Table 5 (Ex. 2), continuous exposure) was 0%. For the same compound, the “Average % Knockdown & Mortality after 15 min” value ([2]; Table 6 (Ex. 3), continuous exposure) was 0%, the “Average % Knockdown & Mortality after 15 min” value ([2]; Table 9 (Ex. 6), continuous exposure) was 0% and the “Average % Knockdown & Mortality after 15 min” value ([2]; Table 11 (Ex. 8), continuous exposure) was 0%. The “Average % Knockdown & Mortality after 4 hr” value ([2]; Table 13 (Ex. 10), continuous exposure) was 0%, the “Average % Knockdown & Mortality after 4 hr” value ([2]; Table 15 (Ex. 12), continuous exposure) was 20% and the “Average % Knockdown & Mortality after 5 hr” value ([2]; Table 17 (Ex. 14), continuous exposure) was 19%. The “Average % Knockdown & Mortality after 4 hr” value ([2]; Table 18 (Ex. 15), continuous exposure) was 47% and the “Average % Knockdown & Mortality after 3 hr” value ([2]; Table 21 (Ex. 18), continuous exposure) was 7%.
